From ChEMBL document CHEMBL1143550, “A structural screening approach to ketoamide-based inhibitors of cathepsin K” (Bioorg Med Chem Lett, 2005)
≈ marks a conversion by molar mass, not a printed value.

Columns and labels:
Cathepsin K = target: T1, Cathepsin K (Homo sapiens, UniProt P43235); test: Inhibitory concentration against human cathepsin K
T1 sequence (P43235 whole entry): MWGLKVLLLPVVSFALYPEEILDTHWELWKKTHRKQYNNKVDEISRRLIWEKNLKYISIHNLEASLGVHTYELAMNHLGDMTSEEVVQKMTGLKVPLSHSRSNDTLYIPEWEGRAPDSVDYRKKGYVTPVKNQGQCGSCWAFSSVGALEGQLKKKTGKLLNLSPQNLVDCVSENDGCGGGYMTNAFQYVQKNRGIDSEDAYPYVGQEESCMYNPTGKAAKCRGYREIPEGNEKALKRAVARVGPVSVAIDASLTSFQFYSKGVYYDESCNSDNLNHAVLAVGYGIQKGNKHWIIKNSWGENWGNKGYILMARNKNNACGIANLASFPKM

Cathepsin B = Cathepsin B (Homo sapiens, UniProt P07858); test: Inhibitory concentration against human cathepsin B by fluorescence assay using 10 uM Cbz-Phe-Arg-AMC
Procathepsin L = Procathepsin L (Homo sapiens, UniProt P07711); test: Inhibitory concentration against human cathepsin L by fluorescence assay using 5 uM Cbz-Phe-Arg-AMC
Sequence of Procathepsin L (P07711 whole entry): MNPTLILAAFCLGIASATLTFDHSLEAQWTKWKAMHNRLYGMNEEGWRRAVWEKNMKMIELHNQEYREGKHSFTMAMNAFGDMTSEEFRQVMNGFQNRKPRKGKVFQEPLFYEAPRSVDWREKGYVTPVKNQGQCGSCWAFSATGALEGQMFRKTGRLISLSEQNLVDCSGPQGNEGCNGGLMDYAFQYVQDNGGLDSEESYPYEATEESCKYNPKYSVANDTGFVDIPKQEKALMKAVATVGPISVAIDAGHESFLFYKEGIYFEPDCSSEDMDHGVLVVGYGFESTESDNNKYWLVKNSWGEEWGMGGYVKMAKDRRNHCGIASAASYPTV

Cathepsin L2 = target: T2, Cathepsin L2 (Homo sapiens, UniProt O60911); test: Inhibitory concentration against human cathepsin V by fluorescence assay using 2 uM Cbz-Phe-Arg-AMC
T2 sequence (O60911 whole entry): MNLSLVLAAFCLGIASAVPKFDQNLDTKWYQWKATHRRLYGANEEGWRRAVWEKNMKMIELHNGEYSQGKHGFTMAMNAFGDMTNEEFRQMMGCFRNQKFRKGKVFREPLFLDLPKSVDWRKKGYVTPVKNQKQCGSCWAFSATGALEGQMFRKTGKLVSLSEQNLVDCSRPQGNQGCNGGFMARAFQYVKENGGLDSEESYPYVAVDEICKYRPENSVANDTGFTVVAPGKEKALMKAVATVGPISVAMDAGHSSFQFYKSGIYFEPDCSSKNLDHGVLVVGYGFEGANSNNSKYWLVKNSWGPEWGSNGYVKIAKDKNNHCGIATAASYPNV

Cathepsin S = Cathepsin S (Homo sapiens, UniProt P25774); test: Inhibitory concentration against human cathepsin S by fluorescence assay using 10 uM Cbz-Val-Val-Arg-AMC
Sequence of Cathepsin S (P25774 whole entry): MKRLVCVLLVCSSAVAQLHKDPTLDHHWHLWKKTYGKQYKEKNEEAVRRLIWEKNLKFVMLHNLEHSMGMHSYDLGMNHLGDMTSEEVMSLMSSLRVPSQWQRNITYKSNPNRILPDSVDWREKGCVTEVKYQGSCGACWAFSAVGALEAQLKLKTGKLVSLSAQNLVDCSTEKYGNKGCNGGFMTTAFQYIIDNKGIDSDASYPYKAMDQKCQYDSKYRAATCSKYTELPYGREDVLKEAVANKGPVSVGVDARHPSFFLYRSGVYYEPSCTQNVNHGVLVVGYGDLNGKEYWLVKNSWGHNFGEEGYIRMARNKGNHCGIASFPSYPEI

Pro-cathepsin H = target: T3, Pro-cathepsin H (Homo sapiens, UniProt P09668); test: Inhibitory concentration against human cathepsin H by fluorescence assay using 50 uM L-Arg-b-naphthalamide
T3 sequence (P09668 whole entry): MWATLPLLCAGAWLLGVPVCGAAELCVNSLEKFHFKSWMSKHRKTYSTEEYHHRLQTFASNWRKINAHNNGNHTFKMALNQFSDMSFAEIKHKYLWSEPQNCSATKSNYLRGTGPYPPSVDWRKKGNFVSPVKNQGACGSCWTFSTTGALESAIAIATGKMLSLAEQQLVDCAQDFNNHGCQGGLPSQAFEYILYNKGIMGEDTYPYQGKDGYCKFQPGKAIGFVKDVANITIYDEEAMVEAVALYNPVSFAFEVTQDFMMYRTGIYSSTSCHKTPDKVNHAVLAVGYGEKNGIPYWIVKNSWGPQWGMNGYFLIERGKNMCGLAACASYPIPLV

[1] = Total clearance after intravenous administration of […] mg/kg in rats was determined; type: ADME, organism-based; conditions: rat, in vivo, 2.5 mg/kg, read-out: C1
[2] = Equilibrium solubility in fasted state-simulated intestinal fluid at pH 6.8 was determined; type: ADME
[3] = Half-life after intravenous administration of […] mg/kg in rats was determined; type: ADME, organism-based; conditions: rat, in vivo, 2.5 mg/kg
[4] = Steady state volume of distribution after intravenous administration of 2.5 mg/kg in rats was determined; type: ADME, organism-based; parameters: dose 2.5 mg/kg, route intravenous; conditions: rat, in vivo, read-out: Vss
[5] = Oral bioavailability in rat (dose 5 mg/kg p.o.); conditions: in vivo
[6] = solubility in fasted state stimulated intestinal fluid (pH6.8); type: ADME; conditions: rat, fasted state simulated intestinal fluid, pH 6.8

Row | SMILES | IC50 (Cathepsin K) [nM] | IC50 (Cathepsin B) [nM] | IC50 (Procathepsin L) [nM] | IC50 (Cathepsin L2) [nM] | IC50 (Cathepsin S) [nM] | IC50 (Pro-cathepsin H) [nM] | clearance [1] [mL/min/kg] | solubility thermodynamic [2] [µg/mL] | half-life [3] [min] | Vd [4] [L/kg] | bioavailability [5] [%] | solubility [6] [µg/mL]
1 | CCCC[C@H](NC(=O)OC1C2(C)CCC(C2)C1(C)C)C(=O)C(=O)N[C@H](C)c1ccccc1 (some centres undefined) | 5.7 | 12000 | 1700 | 180 | 30 | > 13000 | – | – | – | – | – | –
2 | CCCC[C@H](NC(=O)O[C@@H]1C(=O)NCC1(C)C)C(=O)C(=O)N[C@H](C)c1ccccc1 | 2.5 | 1400 | 150 | 29 | 18 | > 13000 | 48 | 800 (≈ 1920 µM) | 62 | 1.3 | 25 | –
3 | CCCC[C@H](NC(=O)OC1C[C@H](C)C[C@@H](C)C1)C(=O)C(=O)N[C@H](C)c1ccccc1 (some centres undefined) | 190 | > 13000 | 6800 | 2000 | 290 | > 13000 | – | – | – | – | – | –
4 | CCCC[C@H](NC(=O)O[C@H]1CCCc2ccccc21)C(=O)C(=O)N[C@H](C)c1ccccc1 | 32 | > 2000 | 660 | 340 | 79 | > 2000 | – | – | – | – | – | –
5 | CCCC[C@H](NC(=O)O[C@H]1CCc2ccccc21)C(=O)C(=O)N[C@H](C)c1ccccc1 | 100 | > 13000 | 460 | 290 | 280 | > 13000 | – | – | – | – | – | –
6 | CCCC[C@H](NC(=O)OC1CC2CCC1C2)C(=O)C(=O)N[C@H](C)c1ccccc1 (some centres undefined) | 26 | > 13000 | 1000 | 190 | 19 | > 13000 | – | – | – | – | – | –
7 | CCCC[C@H](NC(=O)O[C@@H]1C(=O)OCC1(C)C)C(=O)C(=O)N[C@H](C)c1ccccc1 | 3 | > 500 | 410 | 79 | 13 | > 500 | 460 | – | 11 | 3.4 | 0 | 240 (≈ 573 µM)
8 | CCCC[C@H](NC(=O)OC1C2CC3CC(C2)CC1C3)C(=O)C(=O)N[C@H](C)c1ccccc1 (some centres undefined) | 7.2 | > 5000 | 2600 | 390 | 16 | > 5000 | – | – | – | – | – | –
9 | CCCC[C@H](NC(=O)O[C@@H]1C[C@H](C)C[C@H](C)C1)C(=O)C(=O)N[C@H](C)c1ccccc1 | 350 | > 13000 | 4400 | 2800 | 63 | > 13000 | – | – | – | – | – | –
